Assay results: patent US12577247B2 (BUGWORKS RESEARCH, INC., priority 2021, dated 2026)

Key:
A2B receptor [1] = molecular target: T1, A2B receptor (Homo sapiens, UniProt P29275); assay: A2bR antagonism IC50, cAMP TR-FRET (Lance Ultra) in HEK-293 cells, NECA as agonist; type: cell-based; parameters: host or cells: HEK-293; conditions: HEK-293 cells expressing A2B receptor; agonist NECA 30 nM (EC90); inhibition of cAMP
T1 sequence (P29275 1-332): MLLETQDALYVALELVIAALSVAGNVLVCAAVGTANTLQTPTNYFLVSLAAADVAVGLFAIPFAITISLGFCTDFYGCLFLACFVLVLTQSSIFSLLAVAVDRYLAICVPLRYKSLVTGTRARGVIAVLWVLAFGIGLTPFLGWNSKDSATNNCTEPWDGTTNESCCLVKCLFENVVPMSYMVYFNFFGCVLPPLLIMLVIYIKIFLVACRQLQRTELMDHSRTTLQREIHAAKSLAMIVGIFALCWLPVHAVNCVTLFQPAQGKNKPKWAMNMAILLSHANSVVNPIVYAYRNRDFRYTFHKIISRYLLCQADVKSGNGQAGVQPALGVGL

A2A receptor [2] = molecular target: T2, A2A receptor (Homo sapiens, UniProt P29274); assay: A2aR antagonism IC50, cAMP TR-FRET (Lance Ultra) in HEK-293 cells, NECA as agonist; type: cell-based; conditions: A2AR IC50 (nM) (@5 nM NECA), HEK-293 cells expressing A2A receptor; agonist NECA 5 nM (EC90); inhibition of cAMP;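 further: compounds tested from 10 µM down to 0.08 nM in buffer with Rolipram at room temperature, TR-FRET cAMP signal read 1 h after adding Eu-cAMP tracer and ULight anti-cAMP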
T2 construct: host or cells: HEK-293
T2 sequence (P29274 whole entry): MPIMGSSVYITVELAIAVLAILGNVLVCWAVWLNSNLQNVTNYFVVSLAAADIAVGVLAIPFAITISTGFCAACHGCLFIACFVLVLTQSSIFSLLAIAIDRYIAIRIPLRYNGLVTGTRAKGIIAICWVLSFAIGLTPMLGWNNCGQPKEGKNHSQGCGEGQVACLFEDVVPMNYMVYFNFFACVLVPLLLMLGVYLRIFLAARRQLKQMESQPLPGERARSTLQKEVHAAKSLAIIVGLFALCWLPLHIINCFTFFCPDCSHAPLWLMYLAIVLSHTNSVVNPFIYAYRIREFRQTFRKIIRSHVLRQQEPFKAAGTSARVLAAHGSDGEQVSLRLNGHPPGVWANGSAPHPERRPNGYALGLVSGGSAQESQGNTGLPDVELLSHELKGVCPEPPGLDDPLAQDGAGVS

A2B receptor [3] = molecular target: T1, A2B receptor; assay: A2bR antagonism IC50, cAMP TR-FRET in HEK-293 cells, high concentration of adenosine (30 μM); conditions: A2BR IC50 (nM) (@30 μM Adenosine), HEK-293 cells expressing A2B receptor; agonist adenosine 30 μM; 2% HSA; inhibition of cAMP;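 further: compounds preincubated 10 min with cells, then adenosine stimulation 30 min at room temperature in buffer with Rolipram 100 µM and EHNA 30 µM, TR-FRET read after 1 h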
A2A receptor [4] = molecular target: T2, A2A receptor; assay: A2aR antagonism IC50, cAMP TR-FRET in HEK-293 cells, high concentration of adenosine (30 μM); type: cell-based; conditions: HEK-293 cells expressing A2A receptor; agonist adenosine 30 μM; 2% HSA; inhibition of cAMP; read-out: A2AR IC50 (nM) (@30 μM Adenosine);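 further: compounds added 10 min before adenosine, then 30 min stimulation at room temperature in buffer with 100 µM rolipram and 30 µM EHNA, signal read 1 h after detection reagents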

| SMILES | IC50 (A2B receptor [1]) | IC50 (A2A receptor [2]) | IC50 (A2B receptor [3]) | IC50 (A2A receptor [4]) |
| --- | --- | --- | --- | --- |
| Cc1cccc(CC(C)Nc2nc3c(C)c(C)nn3c(N)c2C#N)n1 (single isomer, unassigned) [Example 14, 7-amino-2,3-dimethyl-5-{[1-(6-methylpyridin-2-yl)propan-2-yl]amino}pyrazolo[1,5-a]pyrimidine-6-carbonitrile] | 7 nM | 1 nM | – | – |
| CCc1c(C)nn2c(N)c(C#N)c(NC(C)Cc3ccccn3)nc12 (single isomer, unassigned) [Example 22, 7-Amino-3-ethyl-2-methyl-5-((1-(pyridin-2-yl)propan-2-yl)amino) pyrazolo[1,5-a]pyrimidine-6-carbonitrile] | 2.2 nM | 2.5 nM | – | – |
| CCc1c(C)nn2c(N)c(C#N)c(NC(C)Cc3ccccn3)nc12 (single isomer, unassigned) [Example 23, 7-Amino-3-ethyl-2-methyl-5-((1-(pyridin-2-yl)propan-2-yl)amino) pyrazolo[1,5-a]pyrimidine-6-carbonitrile] | 130 nM | 11 nM | – | – |
| Cc1cccc(C(C)Nc2nc3c(C)c(C)nn3c(N)c2C#N)n1 (centres unmarked) [Example 1, 7-amino-2,3-dimethyl-5-{[1-(6-methylpyridin-2-yl)ethyl]amino}pyrazolo[1,5-a]pyrimidine-6-carbonitrile] | 1330 nM | 10 nM | – | – |
| Cc1cccc([C@H](C)Nc2nc3c(C)c(C)nn3c(N)c2C#N)n1 [Example 2, 7-amino-2,3-dimethyl-5-{[(1S)-1-(6-methylpyridin-2-yl)ethyl]amino}pyrazolo [1,5-a]pyrimidine-6-carbonitrile] | 547 nM | 2 nM | – | – |
| CCc1c(C)nn2c(N)c(C#N)c(N[C@H](C)c3ccccn3)nc12 [Example 3, (R)-7-Amino-3-ethyl-2-methyl-5-((1-(pyridin-2-yl)ethyl)amino) pyrazolo[1,5-a] pyrimidine-6-carbonitrile] | > 3000 nM | 1010 nM | – | – |
| CCc1c(C)nn2c(N)c(C#N)c(N[C@@H](C)c3ccccn3)nc12 [Example 4, (S)-7-Amino-3-ethyl-2-methyl-5-((1-(pyridin-2-yl)ethyl)amino) pyrazolo[1,5-a] pyrimidine-6-carbonitrile] | 1370 nM | 25 nM | – | – |
| CCc1c(C)nn2c(N)c(C#N)c(N[C@@H](C)c3cccc(C)n3)nc12 [Example 5, (S)-7-Amino-3-ethyl-2-methyl-5-((1-(6-methylpyridin-2-yl)ethyl)amino) pyrazolo [1,5-a] pyrimidine-6-carbonitrile] | 0.87 nM | 0.15 nM | – | – |
| Cc1cccc(CNc2nc3c(C)c(C)nn3c(N)c2C#N)n1 [Example 6, 7-amino-2,3-dimethyl-5-{[(6-methylpyridin-2-yl)methyl]amino}pyrazolo[1,5-a] pyrimidine-6-carbonitrile] | > 3000 nM | 6.6 nM | – | – |
| CCc1cccc(CNc2nc3c(C)c(C)nn3c(N)c2C#N)n1 [Example 7, 7-amino-5-{[(6-ethylpyridin-2-yl)methyl]amino}-2,3-dimethylpyrazolo[1,5-a] pyrimidine-6-carbonitrile] | > 3000 nM | 0.59 nM | – | – |
| Cc1cccc(CN(C)c2nc3c(C)c(C)nn3c(N)c2C#N)n1 [Example 8, 7-amino-2,3-dimethyl-5-{methyl[(6-methylpyridin-2-yl)methyl]amino}pyrazolo [1,5-a] pyrimidine-6-carbonitrile] | 1680 nM | 46 nM | – | – |
| Cc1ccc(CCNc2nc3c(C)c(C)nn3c(N)c2C#N)nc1 [Example 10, 7-Amino-2,3-dimethyl-5-((2-(5-methylpyridin-2-yl)ethyl)amino) pyrazolo[1,5-a] pyrimidine-6-carbonitrile] | 41 nM | 2.3 nM | – | – |
| Cc1nn2c(N)c(C#N)c(NCCc3ccc(F)cn3)nc2c1C [Example 11, 7-amino-5-((2-(5-fluoropyridin-2-yl)ethyl)amino)-2,3-dimethylpyrazolo[1,5-a]pyrimidine-6-carbonitrile] | 43 nM | 6.8 nM | – | – |
| COc1cccc(CCNc2nc3c(C)c(C)nn3c(N)c2C#N)n1 [Example 12, 7-amino-5-((2-(6-methoxypyridin-2-yl)ethyl)amino)-2,3-dimethylpyrazolo[1,5-a]pyrimidine-6-carbonitrile] | 3.7 nM | 0.9 nM | – | – |
| Cc1nn2c(N)c(C#N)c(NCCc3cccc(C(C)(C)O)n3)nc2c1C [Example 16, 7-amino-5-({2-[6-(2-hydroxypropan-2-yl)pyridin-2-yl]ethyl}amino)-2,3-dimethylpyrazolo[1,5-a]pyrimidine-6-carbonitrile] | 53 nM | 2 nM | – | – |
| CCc1c(C)nn2c(N)c(C#N)c(NCCc3ccc(C)cn3)nc12 [Example 18, 7-Amino-3-ethyl-2-methyl-5-((2-(5-methylpyridin-2-yl)ethyl)amino) pyrazolo[1,5-a]pyrimidine-6-carbonitrile] | 9.5 nM | 5.5 nM | – | – |
| CCc1c(C)nn2c(N)c(C#N)c(NCCc3ccc(OC)cn3)nc12 [Example 19, 7-Amino-3-ethyl-5-((2-(5-methoxypyridin-2-yl)ethyl)amino)-2-methylpyrazolo [1,5-a]pyrimidine-6-carbonitrile] | 36 nM | 2.1 nM | – | – |
| CCc1c(C)nn2c(N)c(C#N)c(NCCc3ccc(F)cn3)nc12 [Example 21, 7-Amino-3-ethyl-5-((2-(5-fluoropyridin-2-yl)ethyl)amino)-2-methylpyrazolo[1,5-a]pyrimidine-6-carbonitrile] | 13 nM | 3.9 nM | – | – |
| CCc1c(C)nn2c(N)c(C#N)c(NCCc3cccc(C(C)(C)O)n3)nc12 [Example 25, 7-amino-3-ethyl-5-({2-[6-(2-hydroxypropan-2-yl)pyridin-2-yl]ethyl}amino)-2-methylpyrazolo[1,5-a]pyrimidine-6-carbonitrile] | 14 nM | 0.2 nM | – | – |
| Cc1cccc(CCNc2nc3c(CC4CC4)c(C)nn3c(N)c2C#N)n1 [Example 26, 7-amino-3-(cyclopropylmethyl)-2-methyl-5-((2-(6-methylpyridin-2-yl)ethyl)amino) pyrazolo[1,5-a]pyrimidine-6-carbonitrile] | 0.83 nM | 2.9 nM | – | – |
| Cc1cccc(CCNc2nc3c(C(C)C)c(C)nn3c(N)c2C#N)n1 [Example 28, 7-amino-3-(isopropyl)-2-methyl-5-((2-(6-methylpyridin-2-yl)ethyl)amino) pyrazolo[1,5-a]pyrimidine-6-carbonitrile] | 17 nM | 31 nM | – | – |
| Cc1nn2c(N)c(C#N)c(NCCc3cccc(CO)n3)nc2c1CC1CC1 [Example 46, 7-amino-3-(cyclopropylmethyl)-5-((2-(6-(hydroxymethyl)pyridin-2-yl)ethyl)amino)-2-methylpyrazolo[1,5-a]pyrimidine-6-carbonitrile] | – | 1.9 nM | – | – |
| Cc1c(C2CC2)nn2c(N)c(C#N)c(NCCc3cccc(C(C)(C)O)n3)nc12 [Example 47, 7-amino-2-cyclopropyl-5-((2-(6-(2-hydroxypropan-2-yl)pyridin-2-yl)ethyl)amino)-3-methylpyrazolo[1,5-a]pyrimidine-6-carbonitrile] | – | 7.2 nM | – | – |
| Cc1nn2c(N)c(C#N)c(NCCc3cccc(C(F)(F)CO)n3)nc2c1Cl [Example 64, 7-amino-3-chloro-5-((2-(6-(1,1-difluoro-2-hydroxyethyl)pyridin-2-yl)ethyl)amino)-2-methylpyrazolo[1,5-a]pyrimidine-6-carbonitrile] | 11 nM | – | 9070 nM | 284 nM |
| Cc1nn2c(N)c(C#N)c(NCCc3ccn(C4CCC4CO)n3)nc2c1Cl (centres unmarked) [Example 67, 7-amino-3-chloro-5-((2-(1-(2-(hydroxymethyl)cyclobutyl)-1H-pyrazol-3-yl)ethyl)amino)-2-methylpyrazolo[1,5-a]pyrimidine-6-carbonitrile] | – | 0.1 nM | 1880 nM | 50 nM |
| CCc1cnn2c(N)c(C#N)c(NCCc3cc(C)n(C4(CO)CC4)n3)nc12 [Example 80, 7-amino-3-ethyl-5-((2-(1-(1-(hydroxymethyl)cyclopropyl)-5-methyl-1H-pyrazol-3-yl)ethyl)amino) pyrazolo[1,5-a]pyrimidine-6-carbonitrile] | 12 nM | – | 3800 nM | 83 nM |
| CCc1c(C)nn2c(N)c(C#N)c(NCCc3ccn(C(C)CO)n3)nc12 (centres unmarked) [Example 81, 7-amino-3-ethyl-5-((2-(1-(1-hydroxypropan-2-yl)-1H-pyrazol-3-yl)ethyl)amino)-2-methylpyrazolo[1,5-a]pyrimidine-6-carbonitrile] | 3.6 nM | – | 1050 nM | 63 nM |
| CCc1c(C)nn2c(N)c(C#N)c(NCCc3ccn(CC4CC(O)C4)n3)nc12 (centres unmarked) [Example 85, 7-amino-3-ethyl-5-((2-(1-((3-hydroxycyclobutyl)methyl)-1H-pyrazol-3-yl)ethyl)amino)-2-methylpyrazolo[1,5-a] pyrimidine-6-carbonitrile] | 3 nM | – | 1070 nM | 211 nM |
